Test [1] relates to Trypanosoma cruzi Fe-SOD. The test is described as follows: SOD enzymatic inhibition, Fe-SOD. The test is classed as biochemical. The note with it: at 100 µM. How it is done: (§1) Excreted Fe-SOD protein—obtained and quantified as previously described [64]—and commercial Cu/Zn-SOD from human erythrocytes (Sigma-Aldrich) were exposed to the tested compounds at a concentration range from 100 to 0.1 µM to determine in vitro activities using the method previously described.

Test [2] relates to Trypanosoma cruzi. The experiment in a line: PCR of seven organs/tissues of treated BALB/c mice (Spliced Leader sequence). The test is classed as in vivo. How it is done: To assess the efficacy of potential candidates by confirming the absence of infection in the target locations, PCR was carried out at the end of the in vivo timeline (Figure 2C). PCR was positive in seven organs/tissues for the untreated (control) mice groups in both phases, showing the presence of the typical nested amastigotes of the chronic CD.
(§2) Infection was carried out by intraperitoneal inoculation of 5 × 10^5 BTs of T. cruzi per mouse in 0.2 mL PBS [56]. The mice were treated by oral route (~200 µL) once daily for 5 consecutive days. The treatment for mice treated in the acute and chronic phases began when the infection was confirmed (9th day post-infection (dpi)) and was established that the animals had entered the chronic phase (100th dpi), respectively.
(§3) The mice were divided into six groups (n = 3 per group): 0, negative control group (uninfected and untreated mice); I, positive control group (infected and untreated mice); II, BZN group (mice infected and treated with BZN); III, 8 group (mice infected and treated with 8); IV, 10 group (mice infected and treated with 10); V, 15 group (mice infected and treated with 15). The tested compounds and BZN were prepared at 2 mg·mL^−1 in an aqueous suspension vehicle containing 5% (v/v) DMSO and 0.5% (w/v) hydroxypropyl methylcellulose, as previously reported. Therefore, doses of 20 mg·kg^−1 per day were administered for 5 consecutive days, and vehicle only was administered in the negative and positive control groups.
(§4) All in vivo assays for the evaluation of compounds in the acute and chronic CD (Scheme 1)—monitoring of parasitemia, immunosuppression, PCR [59, 60], ELISA [56], and clinical analysis [56]—were performed as previously described. PCR was based on the Spliced Leader (SL) intergenic region sequence of T. cruzi (for detailed description, see literature reported previously).
Figure 2 (A) Parasitemia profiles of each group of mice infected with Trypanosoma cruzi and treated during the acute Chagas disease over a period of 55 days: control (untreated), benznidazole (BZN), 8, 10 and 15. Treatment days are represented in grey. […]. (B) Parasitemia reactivation by fresh blood in the chronic Chagas disease after the immunosuppression cycles for each group of mice treated during the acute and chronic phases of the disease: control (untreated), benznidazole (BZN), 8, 10, and 15. […]. (C) PCR analysis of seven organs/tissues with the Trypanosoma cruzi Spliced Leader (SL) intergenic region sequence in the chronic Chagas disease for each group of mice treated during the acute and chronic phases of the disease: (a) control (untreated), (b) benznidazole, (c) 8, (d) 10, and (e) 15.

Test [3] deals with epimastigotes of T. cruzi Arequipa. The test is described as follows: 1H NMR analysis of excreted metabolites. The test is classed as cell-based, Trypanosoma cruzi. The note with it: IC25 concentrations, 72 h. How it is done:
5 × 10^5 epimastigotes·mL^−1 of T. cruzi Arequipa were treated by adding the tested compounds at IC25 concentrations in 25 cm^2 cell culture flasks at 28 °C for 72 h. Untreated controls were also included. Cultures were then centrifuged and filtered, and the metabolites of the supernatants were analyzed using a ^1H NMR spectrometer (VARIAN DIRECT DRIVE 500 MHz […]) with AutoX probe, D2O as solvent and 2,2-dimethyl-2-silapentane-5-sulphonate as the reference signal. Chemical shifts were expressed in parts per million (ppm), and analyses were conducted as previously reported.

Test [4] has as its system epimastigotes of T. cruzi Arequipa strain. The experiment in a line: Screening against extracellular epimastigotes (resazurin). Format: cell-based, Trypanosoma cruzi. The note with it: for IC50: Trypanosoma cruzi.
Test [5] deals with Trypanosoma cruzi amastigotes in Vero cells. The test is described as follows: Infection rate and amastigotes per Vero cell over 10 days. Format: cell-based. The note with it: IC25 concentrations, measured at 2 days intervals for 10 days. How it is done:
Before going ahead on in vivo trials, the in vitro infection rate and the average number of amastigotes per Vero cell were also measured at 2 days intervals for 10 days after treating the infected cultures with BZN and potential candidates (8, 10, and 15) (Figure 1) at ICH25 concentrations resulting from amastigotes screening. […]. Fast-acting drugs are urgently needed, and this feature is an additional advantage since they can eliminate the parasite in a few doses.
(§5) Trypanocidal activity against amastigotes was determined according to the literature reported previously. […]. […] Each compound concentration was tested in triplicate in four separate determinations.
Figure 1 (A) Percentage of infected Vero cells and (B) number of amastigotes of Trypanosoma cruzi per Vero cell exposed to benznidazole (BZN), 8, 10 and 15. Values constitute means of three separate determinations ± standard deviation. * Significant differences between untreated and treated parasites for α = 0.05. dpi, days post-infection.

Test [6] relates to Trypanosoma cruzi. The experiment in a line: Parasitemia reactivation after immunosuppression in BALB/c mice. The test is classed as in vivo. Particulars: 20 mg/kg per day for 5 days, compared to untreated mice. How it is done: Secondly, the experimental cure was determined using a double checking widely used in in vivo trypanocidal trials. This double checking—based on immunosuppression and PCR (Figure 2B,C, respectively)—was performed to evaluate the treatment effectiveness and the disease extent in both acute and chronic CD at the end of the in vivo timeline. The mice whose parasitemia and PCR remain negative after immunosuppression are considered cured.
Immunosuppression enhances the reactivation of any residual infection, which is proportional to the parasite survival rate.
as §2, §3, §4

Test [7] relates to Trypanosoma cruzi intracellular amastigotes. The experiment in a line: Screening against intracellular amastigotes in Vero cells (Giemsa counting). The test is classed as cell-based. How it is done:
as §5

Test [8] deals with T1, human erythrocytes CuZn-SOD (Homo sapiens, UniProt P00441).
T1 construct: commercial Cu/Zn-SOD from human erythrocytes (Sigma-Aldrich); purchased Sigma-Aldrich; host or cells: human erythrocytes
The test is described as follows: SOD enzymatic inhibition, CuZn-SOD. Format: biochemical. The note with it: 100 to 0.1 µM, read-out: CuZn-SOD IC50 (in brackets). How it is done:
as §1

Test [9] relates to Trypanosoma cruzi. The test is described as follows: Parasitemia monitoring in infected BALB/c mice, acute Chagas disease. Format: in vivo. Particulars: oral 20 mg/kg per day for 5 days from 9th dpi, versus untreated. How it is done:
as §2, §3, §4

Where two headings read alike, the source gives them in different places.

T1 sequence (P00441 whole entry): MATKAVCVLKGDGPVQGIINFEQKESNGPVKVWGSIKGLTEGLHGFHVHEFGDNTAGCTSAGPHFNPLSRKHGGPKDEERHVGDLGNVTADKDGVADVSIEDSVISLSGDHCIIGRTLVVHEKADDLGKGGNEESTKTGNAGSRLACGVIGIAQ

Broadly, the IC50 is the concentration at which inhibition is half-maximal. In [1], `FC(F)(F)c1ccc(C[Se][Se]Cc2ccc(C(F)(F)F)cc2)cc1` [compound 8] showed a Fe-SOD inhibition of 100%. The “negative PCR (parasite-free locations)” value in test [2] (mice treated in acute CD) was 3/7; in [2] (mice treated in chronic CD), 4/7. Further, the “variation of excreted metabolites versus untreated parasites” value in test [3] is less than 10%. Also, the “Selectivity Index Epimast.” value in [4] (IC50 Vero cells/IC50 epimastigotes) amounted to 23. The IC50 in [4] (Table 1, T. cruzi epimastigotes, 48 h treatment + 24 h resazurin, read-out: Activity IC50 Epimast.) is 1900 ± 100 nM; in test [4] (Table S1, cultured epimastigote form of T. cruzi, read-out: Activity IC50) it was no more than 10000 nM; in [7] (Trypanosoma cruzi, Table 1, intracellular amastigotes in Vero cells, 72 h, read-out: Activity IC50 Amast.) it was 800 ± 200 nM; in [8] it was greater than 100000 nM. Besides, in [5], the “infection rate and average number of amastigotes per Vero cell” value is “decrease in both infection rate and number of amastigotes per cell in a time-dependent manner”. For the same compound, the “reactivation of infection after immunosuppression” value stood at 67% in test [6] (mice treated in acute CD) and 44% in test [6] (mice treated in chronic CD). Besides, in test [7] (IC50 Vero cells/IC50 amastigotes), the “Selectivity Index Amast.” value worked out at 55. In addition, the “parasitemia levels (counting BTs) during the acute CD” value in test [9] is given as “trypanocidal activity was even stronger”.
